Measurements reported in US5385893A, “Tricyclopolyazamacrocyclophosphonic acids, complexes and derivatives thereof, for use as contrast agents” (The Dow Chemical Company, priority 1993, dated 1995).

Tests used:
[1] = Complexation: percent samarium metal as a complex (Sephadex column); assay type: physicochemical
Method: Metal ligand complexes were prepared by various methods. The methods included mixing of the metal and ligand in aqueous solution and adjusting the pH to the desired value. Complexation was done in solutions containing salts and/or buffers as well as water.
For example, a solution of the ligand is prepared by dissolving the ligand in deionized water (about pH=2). A ligand/metal complex was then prepared by combining the ligand solution with aqueous SmCl3.H2 O (3×^-4 M in 0.01N HCl) containing tracer ^153 SmCl3. After thorough mixing, the percent metal as a complex was determined by passing a sample of the complex solution through a Sephadex™ column, eluting with 4:1 saline (0.85% NaCl/NH4 OH), and collecting 2×3 mL fractions. The amount of radioactivity in the combined elutions was then compared with that left on the resin. Under these conditions, complex was removed with the eluent and non-complexed metal is retained on the resin. By this method complexation was determined to usually be about 95% or greater.
Using the above procedure, the complexes of samarium with […]

[2] = Biodistribution of 153Sm complexes in rats (% injected dose per organ, NaI scintillation counting after tail vein injection); assay type: in vivo, Sprague Dawley rats; conditions: 2 hours post injection; for Biodistribution: Brain / Biodistribution: Heart / Biodistribution: Kidney / Biodistribution: Large Intestine / Biodistribution: Liver / Biodistribution: Lung / Biodistribution: Small Intestine / Biodistribution: Spleen / Biodistribution: Stomach / Biodistribution: Blood / Biodistribution: Bone / Biodistribution: Muscle: i.v. tail vein; for Biodistribution: Blood: blood assumed 6.5% of body weight; for Biodistribution: Bone: femur x 25; for Biodistribution: Muscle: muscle assumed 43% of body weight; for Ratio Bone/Blood / Ratio Bone/Liver / Ratio Bone/Muscle / Ratio Bone/Spleen: ratio of average % injected dose
Method: A stock ^159 GdCl3 (or ^153 SMCl3) solution was prepared by adding 2 μL of 3×10^-4 M ^159 GdCl3 in 0.1N HCl to 2 mL of a 3×10^-4 M GdCl3 carrier solution. Appropriate ligand solutions were then prepared in deionized water. The 1:1 ligand/metal complexes were then prepared by combining the ligands (dissolved in 100-500 μL of deionized water) with 2 mL of the stock ^159 GdCl3 solution, followed by through mixing to give an acidic solution (pH=2). The pH of the solution was then raised to 7.0 using 0.1N NaOH. The percent metal as a complex was then determined by passing a sample of the complex solution through a Sephadex™ G-50 column, eluting with 4:1 saline ([…]) and collecting 2×3 mL fractions. The amount of radioactivity in the combined elutions was then compared with that left on the resin (non-complexed metal is retained on the resin). The pH stability profile was generated by adjusting the pH of an aliquot of the complex solution using 1M NaOH or 1M HCl and determining the percent of the metal existing as a complex using the ion exchange method described above. The Sm results are known by expermintal comparison to be identical for complexation and biodistribution of the ligands of this invention.
Sprague Dawley rats were allowed to acclimate for five days then injected with 100 μL of the complex solution via a tail vein. The rats weighed between 150 and 250 g at the time of injection. […] The amount of radioactivity in each tissue was determined by counting in a NaI scintillation counter coupled to a multichannel analyzer. The counts were compared to the counts in 100 μL standards in order to determine the percentage of the dose in each tissue or organ.
The percent dose in blood was estimated assuming blood to be 6.5% of the total body weight. The percent dose in bone was estimated by multiplying the percent dose in the femur by 25. The percent dose in muscle was estimated assuming muscle to be 43% of the total body weight.
In addition to organ biodistribution, chelates of the compounds of Formula (I) were evaluated for efficiency of bone localization since phosphonates are known for their ability to bind to hydroxyapatite.

[3] = Prohance versus Magnevist; cited from earlier work
[4] = in vivo; cited from earlier work
[5] = Biolocalization of complexes having an overall charge of +1 (bone uptake); assay type: in vivo; conditions: complex having an overall charge of +1
[6] = breakdown of the blood/brain barrier allows perfusion; cited from earlier work

SMILES | Biodistribution: Brain [2] [% INJECTED DOSE] | Biodistribution: Heart [2] [% INJECTED DOSE] | Biodistribution: Kidney [2] [% INJECTED DOSE] | Biodistribution: Large Intestine [2] [% INJECTED DOSE] | Biodistribution: Liver [2] [% INJECTED DOSE] | Biodistribution: Lung [2] [% INJECTED DOSE] | Biodistribution: Small Intestine [2] [% INJECTED DOSE] | Biodistribution: Spleen [2] [% INJECTED DOSE] | Biodistribution: Stomach [2] [% INJECTED DOSE] | Biodistribution: Blood [2] [% INJECTED DOSE] | Biodistribution: Bone [2] [% INJECTED DOSE] | Biodistribution: Muscle [2] [% INJECTED DOSE] | Ratio Bone/Blood [2] | Ratio Bone/Liver [2] | Ratio Bone/Muscle [2] | Ratio Bone/Spleen [2] | further results
CCOP(=O)(O)CN1Cc2cccc(n2)CN(CP(=O)(O)OCC)Cc2cccc(n2)C1 [BP2EP, N,N'-bis(methylenephosphonic acid ethyl ester)-2,11-diaza[3.3](2,6)pyridinophane] |  |  |  |  |  |  |  |  |  |  |  |  |  |  |  |  | percent metal as a complex ([1]; ligand:metal ratio of 4:1): 98%
O=P(O)(O)CN1Cc2cccc(n2)CN(CP(=O)(O)O)Cc2cccc(n2)C1 [BP2P, N,N'-bis (methylenephosphonic acid) -2,11-diaza[3.3](2,6)pyridinophane] |  |  |  |  |  |  |  |  |  |  |  |  |  |  |  |  | percent metal as a complex ([1]; ligand:metal ratio of 3:1): 95%
O=C([O-])CN1Cc2cccc(n2)CN(CC(=O)[O-])Cc2cccc(n2)C1.[153Sm+3] [^153 Sm-BP2A, ^153 Sm N,N'-diacetic acid-2,11-diaza[3.3](2,6)pyridinophane] | 0.01 | 0.02 | 0.95 | 0.04 | 0.68 | 0.06 | 0.80 | 0.01 | 0.05 | 0.43 | 27.98 | 0.80 | 65 | 41 | 35 | 2,798 | 
O=C([O-])CN1Cc2cccc(n2)CN(CC(=O)[O-])Cc2cccc(n2)CN(CC(=O)[O-])Cc2cccc(n2)C1.[153Sm+3] [^153 Sm-TP3A, ^153 Sm N,N',N"-triacetic acid-2,11,20-diaza[3.3.3](2,6)pyridinophane] |  | 0.016 | 0.639 | 0.156 | 0.570 | 0.047 | 1.426 | 0.068 | 0.036 | 0.437 | 1.495 | 0.833 | 3 | 3 | 2 | 22 | 
CC(O)CN1CCN(CC(=O)[O-])CCN(CC(=O)[O-])CCN(CC(=O)[O-])CC1.[Gd+3] (stereo not drawn) [Prohance, [1,4,7-tris(carboxymethyl)-10-(2-hydroxypropyl)-1,4,7,10-tetraazacyclododecanato]-gadolinium] |  |  |  |  |  |  |  |  |  |  |  |  |  |  |  |  | side effects [3]: fewer side effects than Magnevist; distribution and elimination [4]: freely distribute in extracellular fluid followed by efficient elimination through the renal system
O=C(O)CN1Cc2cccc(n2)CN(CC(=O)O)Cc2cccc(n2)CN(CC(=O)O)Cc2cccc(n2)C1 [TP3A, N,N',N"-triacetic acid-2,11,20-diaza[3.3.3](2,6)pyridinophane] |  |  |  |  |  |  |  |  |  |  |  |  |  |  |  |  | percent metal as a complex ([1]; ligand:metal ratio of 3:1): 98.6%
O=C(O)CN1Cc2cccc(n2)CN(CC(=O)O)Cc2cccc(n2)C1 [BP2A, N,N'-diacetic acid-2,11-diaza[3.3]-(2,6)pyridinophane] |  |  |  |  |  |  |  |  |  |  |  |  |  |  |  |  | bone uptake of complex [5]: displays bone uptake; percent metal as a complex ([1]; ligand:metal ratio of 4:1): 99%
CNC[C@H](O)[C@@H](O)[C@H](O)[C@H](O)CO.CNC[C@H](O)[C@@H](O)[C@H](O)[C@H](O)CO.O=C([O-])CN(CCN(CC(=O)[O-])CC(=O)O)CCN(CC(=O)[O-])CC(=O)O.[Gd+3] [Magnevist, complex of gadolinium with diethylenetriaminepentaacetic acid] |  |  |  |  |  |  |  |  |  |  |  |  |  |  |  |  | usefulness in the diagnosis of brain lesions [6]: extremely valuable in the diagnosis of brain lesions; distribution and elimination [4]: freely distribute in extracellular fluid followed by efficient elimination through the renal system
CCOP(=O)([O-])CN1Cc2cccc(n2)CN(CP(=O)([O-])OCC)Cc2cccc(n2)C1.[153Sm+3] [^153 Sm-BP2EP, ^53 Sm N,N'-bis(methylenephosphonic acid ethyl ester)-2,11-diaza[3.3](2,6)pyridinophane] | 0.01 | 0.04 | 0.74 | 0.25 | 5.97 | 0.19 | 0.33 | 0.32 | 0.36 | 0.45 | 39.82 | 1.21 | 88 | 7 | 33 | 124 | 
O=P([O-])([O-])CN1Cc2cccc(n2)CN(CP(=O)([O-])[O-])Cc2cccc(n2)C1.[153Sm+3] [^153 Sm-BP2P, ^153 Sm N,N'-bis(methylenephosphonic acid)-2,11-diaza[3.3](2,6)pyridinophane] | 0.01 | 0.07 | 1.21 | 0.13 | 3.71 | 0.17 | 0.39 | 0.05 | 0.20 | 0.87 | 60.08 | 1.53 | 69 | 16 | 39 | 1,201 | 
